Measurements taken from patent US9540323B2 (BRISTOL-MYERS SQUIBB COMPANY, priority 2012, dated 2017).

Experiments:
[1] = biological target: cloned human P2Y1 receptors (Homo sapiens (Human), UniProt P47900); assay: Binding Assay B - Scintillation Proximity Assay (SPA) for P2Y1 binding, [33P] 2MeS-ADP; settings: SPA, 0.3 nM [33P] 2MeS-ADP, Cheng-Prusoff; read-out: P2Y1 Ki (nM) using binding assay B
Method: Binding Assay B—Scintillation Proximity Assay (SPA) for P2Y1 Binding
A SPA membrane binding assay was used to identify inhibitors of [^33P] […] Reactions were allowed to proceed to completion at room temperature for 1 hour followed by centrifugation of the plate for 5 min. About 40 μL of the aqueous solution was aspirated. Plates were sealed and the [^33P]

[2] = tested on: human platelet rich plasma (PRP); assay: ADP induced platelet aggregation assay; settings: Homo sapiens, Platelet, 5 min, read-out: PA IC50 (μM) @ 10 μM ADP, human PRP, 10 μM ADP, AUC at 5 minute

cloned human P2Y1 receptors, sequence (P47900 whole entry): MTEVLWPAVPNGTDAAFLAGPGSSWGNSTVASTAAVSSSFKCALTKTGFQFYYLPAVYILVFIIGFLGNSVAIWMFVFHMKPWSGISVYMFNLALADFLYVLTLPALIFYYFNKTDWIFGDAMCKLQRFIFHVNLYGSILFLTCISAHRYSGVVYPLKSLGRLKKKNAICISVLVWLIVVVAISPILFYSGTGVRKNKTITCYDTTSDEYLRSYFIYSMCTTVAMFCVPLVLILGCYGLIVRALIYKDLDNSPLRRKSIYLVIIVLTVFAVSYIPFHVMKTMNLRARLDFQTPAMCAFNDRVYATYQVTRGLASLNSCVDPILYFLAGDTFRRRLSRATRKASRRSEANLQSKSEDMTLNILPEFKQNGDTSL

SMILES | Ki [1] [nM] | IC50 [2] [µM]
CC1(C)CN(c2ccccc2NC(=O)Nc2ccc(OC(F)(F)F)cc2)c2c(O)ccc(-c3cccc(F)c3)c21 [Example 206, 1-(2-(4-(3-Fluorophenyl)-7-hydroxy-3,3-dimethylindolin-1-yl)phenyl)-3-(4-(trifluoromethoxy)phenyl)urea] | 8.5 | 0.24
CC1(C)CN(c2ccccc2NC(=O)Nc2ccc(OC(F)(F)F)cc2)c2c(O)ccc(-c3ccccc3F)c21 [Example 207, 1-(2-(4-(2-Fluorophenyl)-7-hydroxy-3,3-dimethylindolin-1-yl)phenyl)-3-(4-(trifluoromethoxy)phenyl)urea] | 8.7 | 0.08
CC1(C)CN(c2ccccc2NC(=O)Nc2csc(C(F)(F)F)n2)c2c(O)ccc(-c3ccc(F)cc3)c21 [Example 208, 1-(2-(4-(4-Fluorophenyl)-7-hydroxy-3,3-dimethylindolin-1-yl)phenyl)-3-(2-(trifluoromethyl)thiazol-4-yl)urea] | 11.4 | 0.25
CC1(C)CN(c2ccccc2NC(=O)Nc2nc3ccc(Cl)nc3s2)c2c(O)ccc(-c3ccc(F)cc3)c21 [Example 209, 1-(5-Chlorothiazolo[5,4-b]pyridin-2-yl)-3-(2-(4-(4-fluorophenyl)-7-hydroxy-3,3-dimethylindolin-1-yl)phenyl)urea] | 13 | 0.23
CC1(C)CN(c2ccccc2NC(=O)Nc2nc3ccc(F)cc3s2)c2c(O)ccc(-c3ccc(F)cc3)c21 [Example 210, 1-(6-Fluorobenzo[d]thiazol-2-yl)-3-(2-(4-(4-fluorophenyl)-7-hydroxy-3,3-dimethylindolin-1-yl)phenyl)urea] | 12.4 | 0.08
CC(C)CN1CCC(c2ccc(NC(=O)Nc3ccccc3N3CC(C)(C)c4c(-c5ccc(F)cc5)ccc(O)c43)cc2)CC1 [Example 211, 1-(2-(4-(4-Fluorophenyl)-7-hydroxy-3,3-dimethylindolin-1-yl)phenyl)-3-(4-(1-isobutylpiperidin-4-yl)phenyl)urea] | 27.1 | 0.46
CC1(C)CN(c2ccccc2NC(=O)Nc2csc(Cl)n2)c2c(O)cc(F)c(-c3ccc(F)cc3)c21 [Example 212, 1-(2-Chlorothiazol-4-yl)-3-(2-(5-fluoro-4-(4-fluorophenyl)-7-hydroxy-3,3-dimethylindolin-1-yl)phenyl)urea] | 4.9 | 0.16
CC1(C)CN(c2ccccc2NC(=O)Nc2nc3ccc(F)cc3s2)c2c(O)cc(F)c(-c3ccc(F)cc3)c21 [Example 213, 1-(2-(5-Fluoro-4-(4-fluorophenyl)-7-hydroxy-3,3-dimethylindolin-1-yl)phenyl)-3-(6-fluorobenzo[d]thiazol-2-yl)urea] | 25.4 | 0.38
CC1(C)CN(c2ccccc2NC(=O)Nc2ccc(OC(F)(F)F)cc2)c2c(O)cc(F)c(-c3ccc(Cl)cc3)c21 [Example 214, 1-(2-(4-(4-Chlorophenyl)-5-fluoro-7-hydroxy-3,3-dimethylindolin-1-yl)phenyl)-3-(4-(trifluoromethoxy)phenyl)urea] | 13.7 | 0.21
CC1(C)CN(c2ccccc2NC(=O)Nc2csc(Cl)n2)c2c(O)cc(F)c(-c3ccc(Cl)cc3)c21 [Example 215, 1-(2-(4-(4-Chlorophenyl)-5-fluoro-7-hydroxy-3,3-dimethylindolin-1-yl)phenyl)-3-(2-chlorothiazol-4-yl)urea] | 15 | 0.14
CC1(C)CN(c2ccccc2NC(=O)Nc2ccc(OC(F)(F)F)cc2)c2c(O)cc(F)c(-c3ccc(C(F)(F)F)cc3)c21 [Example 216, 1-(2-(5-Fluoro-7-hydroxy-3,3-dimethyl-4-(4-(trifluoromethyl)phenyl)indolin-1-yl)phenyl)-3-(4-(trifluoromethoxy)phenyl)urea] | 54.7 | 0.14
CC1(C)CN(c2ccccc2NC(=O)Nc2nc3ccc(F)cc3s2)c2c(O)cc(F)c(-c3ccc(Cl)cc3)c21 [Example 224, 1-(2-(4-(4-Chlorophenyl)-5-fluoro-7-hydroxy-3,3-dimethylindolin-1-yl)phenyl)-3-(6-fluorobenzo[d]thiazol-2-yl)urea] | 26.1 | 0.34
CC1(C)CN(c2ccccc2NC(=O)Nc2nc3ccc(Cl)cc3s2)c2c(O)cc(F)c(-c3ccc(Cl)cc3)c21 [Example 225, 1-(6-Chlorobenzo[d]thiazol-2-yl)-3-(2-(4-(4-chlorophenyl)-5-fluoro-7-hydroxy-3,3-dimethylindolin-1-yl)phenyl)urea] | 34.7 | 0.36
CC1(C)CN(c2ccccc2NC(=O)Nc2nc3ccc(Cl)nc3s2)c2c(O)cc(F)c(-c3ccc(Cl)cc3)c21 [Example 226, 1-(2-(4-(4-Chlorophenyl)-5-fluoro-7-hydroxy-3,3-dimethylindolin-1-yl)phenyl)-3-(5-chlorothiazolo[5,4-b]pyridin-2-yl)urea] | 26.6 | 0.46
CC1(C)CN(c2ccccc2NC(=O)Nc2nc3ccc(F)nc3s2)c2c(O)cc(F)c(-c3ccc(Cl)cc3)c21 [Example 227, 1-(2-(4-(4-Chlorophenyl)-5-fluoro-7-hydroxy-3,3-dimethylindolin-1-yl)phenyl)-3-(5-fluorothiazolo[5,4-b]pyridin-2-yl)urea] | 21.6 | 0.56
CC1(C)CN(c2ccccc2NC(=O)Nc2csc(C(F)(F)F)n2)c2c(O)cc(F)c(-c3ccc(F)cc3)c21 [Example 228, 1-(2-(5-Fluoro-4-(4-fluorophenyl)-7-hydroxy-3,3-dimethylindolin-1-yl)phenyl)-3-(2-(trifluoromethyl)thiazol-4-yl)urea] | 13.6 | 0.3
CC1(C)CN(c2ccccc2NC(=O)Nc2ccc(OC(F)(F)F)cc2)c2c(O)c(F)cc(-c3ccc(C(F)(F)F)cc3)c21 [Example 229, 1-(2-(6-Fluoro-7-hydroxy-3,3-dimethyl-4-(4-(trifluoromethyl)phenyl)indolin-1-yl)phenyl)-3-(4-(trifluoromethoxy)phenyl)urea] | 15.3 | 0.22
CC1(C)CN(c2ccccc2NC(=O)Nc2ccc(OC(F)(F)F)cc2)c2c(O)c(F)cc(-c3ccccc3)c21 [Example 230, 1-(2-(6-Fluoro-7-hydroxy-3,3-dimethyl-4-phenylindolin-1-yl)phenyl)-3-(4-(trifluoromethoxy)phenyl)urea] | 16.3 | 0.3
CC1(C)CN(c2ccccc2NC(=O)Nc2ccc(OC(F)(F)F)cc2)c2c(O)c(F)cc(-c3ccc(Cl)cc3)c21 [Example 231, 1-(2-(4-(4-Chlorophenyl)-6-fluoro-7-hydroxy-3,3-dimethylindolin-1-yl)phenyl)-3-(4-(trifluoromethoxy)phenyl)urea] | 15.2 | 0.3
CC1(C)CN(c2ccccc2NC(=O)Nc2ccc(OC(F)(F)F)cc2)c2c(O)c(F)cc(-c3ccc(F)cc3)c21 [Example 232, 1-(2-(6-Fluoro-4-(4-fluorophenyl)-7-hydroxy-3,3-dimethylindolin-1-yl)phenyl)-3-(4-(trifluoromethoxy)phenyl)urea] | 14.7 | 0.39
CC1(C)CN(c2ccccc2NC(=O)Nc2nc3ccc(F)nc3s2)c2c(O)cc(F)c(-c3ccc(F)cc3)c21 [Example 233, 1-(2-(5-Fluoro-4-(4-fluorophenyl)-7-hydroxy-3,3-dimethylindolin-1-yl)phenyl)-3-(5-fluorothiazolo[5,4-b]pyridin-2-yl)urea] | 9.4 | 0.31
CC1(C)CN(c2ccccc2NC(=O)Nc2ccc(OC(F)(F)F)cc2)c2c(O)cc(F)c(-c3ccc(Cl)c(F)c3)c21 [Example 234, 1-(2-(4-(4-Chloro-3-fluorophenyl)-5-fluoro-7-hydroxy-3,3-dimethylindolin-1-yl)phenyl)-3-(4-(trifluoromethoxy)phenyl)urea] | 40.8 | 0.29
CC1(C)CN(c2ccccc2NC(=O)Nc2ccc(OC(F)(F)F)cc2)c2c(O)cc(F)c(-c3cccc(Cl)c3)c21 [Example 235, 1-(2-(4-(3-Chlorophenyl)-5-fluoro-7-hydroxy-3,3-dimethylindolin-1-yl)phenyl)-3-(4-(trifluoromethoxy)phenyl)urea] | 19.5 | 0.23
CC1(C)CN(c2ccccc2NC(=O)Nc2ccc(OC(F)(F)F)cc2)c2c(O)cc(F)c(-c3ccc(Cl)cc3F)c21 [Example 236, 1-(2-(4-(4-Chloro-2-fluorophenyl)-5-fluoro-7-hydroxy-3,3-dimethylindolin-1-yl)phenyl)-3-(4-(trifluoromethoxy)phenyl)urea] | 17 | 0.23
CC1(C)CN(c2ccccc2NC(=O)Nc2ccc(OC(F)(F)F)cc2)c2c(O)cc(F)c(-c3ccc(F)c(Cl)c3)c21 [Example 237, 1-(2-(4-(3-Chloro-4-fluorophenyl)-5-fluoro-7-hydroxy-3,3-dimethylindolin-1-yl)phenyl)-3-(4-(trifluoromethoxy)phenyl)urea] | 21.5 | 0.48
CC(C)CN1CCC(c2ccc(NC(=O)Nc3ccccc3N3CC(C)(C)c4c(-c5ccc(Cl)cc5)c(F)cc(O)c43)cc2)CC1 [Example 238, 1-(2-(4-(4-Chlorophenyl)-5-fluoro-7-hydroxy-3,3-dimethylindolin-1-yl)phenyl)-3-(4-(1-isobutylpiperidin-4-yl)phenyl)urea] | 16.3 | 0.4
CC1(C)CN(c2ccccc2NC(=O)Nc2csc(Cl)n2)c2c(O)cc(F)c(-c3ccc(C(F)(F)F)cc3)c21 [Example 239, 1-(2-Chlorothiazol-4-yl)-3-(2-(5-fluoro-7-hydroxy-3,3-dimethyl-4-(4-(trifluoromethyl)phenyl)indolin-1-yl)phenyl)urea] | 11.3 | 0.05
